Reference: patent publication EP0017976A2, “Process for preparing imidazole derivatives” (F. HOFFMANN-LA ROCHE & CO. Aktiengesellschaft, priority 1979, dated 1980)

Assays:
Schistosoma mansoni = experiment: Schistosomicidal effect: share of living and dead worm pairs in liver vessels of infected mice, treated vs untreated; VD50 by probit method; format: in vivo; conditions: mice infected with cercariae of Schistosoma mansoni; qualitative statement only, VD50 not given
Text: Die schistosomicide Wirkung wurde ermittelt durch Vergleich des prozentualen Anteils lebender und toter Wurmpaare in den Gefässen der Leber sowohl bei mit Cercarien von Schistosoma mansoni infizierten, behandelten Mäusen als auch bei infizierten aber unbehandelten Kontrolltieren. Die Bestimmung der VD50 (Vermicide Dosis 50%: Dosis, die 50% der Wurmpaare abtötet) erfolgte nach der Probitmethode.

[1] = test system: ventralen Prostata und der Samenblase; experiment: Antiandrogenic effect: weight decrease of ventral prostate and seminal vesicle in male sterilised rats; format: in vivo, Ratten; conditions: qualitative statement only
Text: Die antiandrogene Wirkung wurde durch Bestimmung der Gewichtsabnahme der ventralen Prostata und der Samenblase von männlichen sterilisierten Ratten ermittelt.

Structure (SMILES)	schistosomicide Wirkung (Schistosoma mansoni)	antiandrogene Wirkung [1]
CC1(C)NC(=O)N(c2ccc(F)c(C(F)(F)F)c2)C1=N [1-(3-Trifluormethyl-4-fluor-phenyl)-5-imino-4,4-dimethyl-2-imidazolidinon]	starken schistosomiciden Wirkung	
CC1(C)NC(=O)N(c2ccc(F)c(C(F)(F)F)c2)C1=O [3-(3-Trifluormethyl-4-fluorphenyl)-5,5-dimethyl-hydantoin]	starken schistosomiciden Wirkung	
CC1(C)NC(=O)N(c2ccc(F)c(Cl)c2)C1=O [3-(3-Chlor-4-fluor-phenyl)-5,5-dimethylhydantoin]		antiandrogen wirksame
